# Like-named read-outs stand apart in the source and are kept apart here.
# Key:
# [1] = test system: S. aureus ATCC 25923; assay: MIC, broth microdilution; assay type: cell-based, Staphylococcus aureus
# Source text: (§1) Strain representatives of six globally spread clones/lineages of MRSA were used in this study to test the antimicrobial activity of the N,O-acetal derivatives against MRSA: NY/Japan-USA100/ST5-SCCmecII (strain CR15-071), USA300/ST8-SCCmecIV (strain USA300-0114), USA400/ST1-SCCmecIV (strain USA400-0051), Brazilian epidemic clone-BEC/ST239-SCCmecIII (strain BMB9393), pediatric clone-USA800/ST5-SCCmecIV (strain USA800-0179), and OSPC-USA1100/ST30-SCCmecIV (strain 07-040). The S. aureus ATCC 25923 was used as a control for the experiment of drug susceptibility. […] For biofilm production, tryptic soy broth (TSB; BD, Franklin Lakes, NJ, USA) was supplemented with 1% (w/v) glucose (TSB-Glu). Tryptic soy agar (TSA; BD) was used for bacterial growth. The Mueller-Hinton broth (MHB; BD) and Mueller-Hinton agar (MHA; BD) was used for susceptibility tests. All strains were maintained in 10% (v/v) glycerol stocks and stored at − 80 °C.
# (§2) The antibacterial activity of 6a and its derivatives 7a, 7b, and 7c was tested as previously described using paper disks impregnated with each compound[13]. The derivatives were also analyzed quantitatively using microdilution assays in 96-well inert polystyrene microtiter plates (Nuclon; Nalge Nunc International, Rochester, NY, USA) to determine the minimal inhibitory concentration (MIC)[14]. Biological control, as well as growth conditions, were performed following CLSI recommendation[15],[16]. […] Controls were also performed using 2% (v/v) DMSO only.
# [2] = test system: MRSA BEC (BMB9393); assay: microbe, parasite or virus in culture; assay type: cell-based, Staphylococcus aureus
# Protocol: (§3) For biofilm production, tryptic soy broth (TSB; BD, Franklin Lakes, NJ, USA) was supplemented with 1% (w/v) glucose (TSB-Glu). Tryptic soy agar (TSA; BD) was used for bacterial growth. The Mueller-Hinton broth (MHB; BD) and Mueller-Hinton agar (MHA; BD) was used for susceptibility tests. All strains were maintained in 10% (v/v) glycerol stocks and stored at − 80 °C.
# as §2, with “The” for “The antibacterial activity of 6a and its derivatives 7a, 7b, and 7c was tested as previously described using paper disks impregnated with each compound[13]. The”
# [3] = test system: MRSA NY/Japan-USA100 (CR15-071); assay: MIC, broth microdilution; assay type: cell-based, Staphylococcus aureus
# Protocol: as §3
# as §2, with “The” for “The antibacterial activity of 6a and its derivatives 7a, 7b, and 7c was tested as previously described using paper disks impregnated with each compound[13]. The”
# [4] = test system: MRSA OSPC-USA1100 (07-040); assay: MIC, broth microdilution; assay type: cell-based, Staphylococcus aureus
# Protocol: as §3
# as §2, with “The” for “The antibacterial activity of 6a and its derivatives 7a, 7b, and 7c was tested as previously described using paper disks impregnated with each compound[13]. The”
# [5] = test system: MRSA Pediatric-USA800 (USA800-0179); assay: MIC, broth microdilution; assay type: cell-based, Staphylococcus aureus
# Protocol: as §3
# as §2, with “The” for “The antibacterial activity of 6a and its derivatives 7a, 7b, and 7c was tested as previously described using paper disks impregnated with each compound[13]. The”
# [6] = test system: MRSA USA300 (USA300-0114); assay: MIC, broth microdilution; assay type: cell-based, Staphylococcus aureus
# Protocol: as §3
# as §2, with “The” for “The antibacterial activity of 6a and its derivatives 7a, 7b, and 7c was tested as previously described using paper disks impregnated with each compound[13]. The”
# [7] = test system: MRSA USA400 (USA400-0051); assay: MIC, broth microdilution; assay type: cell-based, Staphylococcus aureus
# Protocol: as §3
# as §2, with “The” for “The antibacterial activity of 6a and its derivatives 7a, 7b, and 7c was tested as previously described using paper disks impregnated with each compound[13]. The”
# [8] = test system: S. aureus ATCC 25923; assay: Disk diffusion test; assay type: cell-based, Staphylococcus aureus
# Source text: as §1, §2
# [9] = test system: MRSA ST239-SCCmecIII (BMB9393); assay: Disk diffusion test; assay type: cell-based, Staphylococcus aureus
# [10] = test system: MRSA ST5-SCCmecII (USA100); assay: Disk diffusion test; assay type: cell-based, Staphylococcus aureus
# [11] = test system: MRSA ST8-SCCmecIV (USA300); assay: Disk diffusion test; assay type: cell-based, Staphylococcus aureus
# [12] = test system: MRSA (ST1-SCCmecIV) (USA400); assay: Disk diffusion test; assay type: cell-based, Staphylococcus aureus
# [13] = test system: MRSA ST30-SCCmecIV (USA1100); assay: Disk diffusion test; assay type: cell-based, Staphylococcus aureus
# [14] = test system: MRSA ST5-SCCmecIV (USA800); assay: Disk diffusion test; assay type: cell-based, Staphylococcus aureus
# [15] = test system: mecA; assay: Real-time RT-qPCR of biofilm-associated genes; assay type: cell-based, Staphylococcus aureus
# [16] = test system: fnbA; assay: Real-time RT-qPCR of biofilm-associated genes; assay type: cell-based, Staphylococcus aureus
# [17] = test system: spa; assay: Real-time RT-qPCR of biofilm-associated genes; assay type: cell-based, Staphylococcus aureus
# [18] = test system: psmα3; assay: Real-time RT-qPCR of biofilm-associated genes; assay type: cell-based, Staphylococcus aureus
# [19] = test system: rnaIII; assay: Real-time RT-qPCR of global regulators; assay type: cell-based, Staphylococcus aureus
# [20] = test system: sarA; assay: Real-time RT-qPCR of global regulators; assay type: cell-based, Staphylococcus aureus
# [21] = test system: sigB; assay: Real-time RT-qPCR of global regulators; assay type: cell-based, Staphylococcus aureus
# [22] = test system: atlA; assay: Autolytic system: atlA real-time qRT-PCR; assay type: cell-based, Staphylococcus aureus
# [23] = test system: MRSA strain BMB9393; assay: Autolytic system: extracellular DNA (eDNA) in supernatant; assay type: cell-based, Staphylococcus aureus; conditions: 1/4MIC, 7b stated relative to 7c
# [24] = test system: MRSA strain BMB9393 biofilm; assay: Confocal laser scanning microscopy (CLSM) of biofilm; assay type: cell-based, Staphylococcus aureus; conditions: 1/4MIC (7b 32 µg/mL, 7c 16 µg/mL); SYTO 9; compared with untreated biofilms
# Protocol: For CLSM experiments, after 24 h of incubation, the supernatant containing planktonic cells was gently removed, and biofilm treated with 25 nM SYTO 9 DNA-intercalating stain (Invitrogen; Carlsbad, CA, EUA), as previously described. Before visualization, SYTO 9 solution was removed and the material visualized using a confocal laser scanning microscope (Model LSM510 Carl Zeiss Meditec; Jena, Germany). The microscope was configured with the argon laser (458 nm/477 nm/488 nm/514 nm). The images were randomly captured with the […]. Controls were performed using 2% (v/v) DMSO only (final concentration). Three independent experiments were performed in quadruplicate.
# [25] = test system: hla
# [26] = Table 2, used for SI, strain not given, values of 6a-7c equal those for BEC (BMB9393)
SMILES,"MIC [2, 26] [µg/mL]",Inhibition zone [8] [mm],Inhibition zone [9] [mm],Inhibition zone [10] [mm],Inhibition zone [11] [mm],Inhibition zone [12] [mm],Inhibition zone [13] [mm],Inhibition zone [14] [mm],mecA expression [15],Reduction of fnbA expression [16],Reduction of spa expression [17] [%],Reduction of psmα3 expression [18] [%],Reduction of RNAIII transcripts [19] [%],Reduction of sarA gene expression [20],Increase of sigB transcripts [21],Increase in atlA transcripts [22],Amount of eDNA in bacterial supernatant (cell lysis) [23],Biofilm accumulation by CLSM [24],Reduction of hla expression [25] [%],also measured
"CCOCNC1=CC(=O)c2ccccc2C1=O [7b, 2-(ethoxymethyl)-amino-1,4-naphthoquinone]",128,12.5±3.5,10±1.0,13±2.0,12±2.0,13±1.0,13±1.0,13±0.5,not significantly affected,89.3% ± 1.5%,95.4 ± 0.9,97.75 ± 0.6,88.0 ± 1.1,65.5 ± 6.0%,did not affect,3.5 times,even higher (about two-fold),decrease biofilm accumulation massively,90.0 ± 0.6,"MIC ([1]; Staphylococcus aureus, ATCC25923, control strain S. aureus ATCC 25923, read-out: MIC): 64 µg/mL; MIC ([2]; Staphylococcus aureus, MRSA): 128 µg/mL; MIC ([3]; Staphylococcus aureus): 128 µg/mL; MIC ([4]; Staphylococcus aureus, MRSA): 256 µg/mL; MIC ([5]; Staphylococcus aureus): 256 µg/mL; MIC ([6]; Staphylococcus aureus): 64 µg/mL; MIC ([7]; Staphylococcus aureus): 128 µg/mL"
"C#CCOCNC1=CC(=O)c2ccccc2C1=O [7c, 2-(propynyloxymethyl)-amino-1,4-naphthoquinone]",64,14±3.4,13±1.0,12±1.5,13±1.3,11±0.8,15±0.8,13±1.0,not significantly affected,24.64% ± 3.5%,74.82 ± 4.9,87.73 ± 4.3,70.6 ± 2.2,no important effect,57.22 ± 5.2%,three-fold increase,increased,decrease biofilm accumulation massively,86.5 ± 1.0,"MIC ([1]; control strain S. aureus ATCC 25923): 16 µg/mL; MIC ([2]; broth microdilution, BEC (BMB9393)): 64 µg/mL; MIC ([3]; broth microdilution, NY/Japan-USA100 (CR15-071)): 128 µg/mL; MIC ([4]; broth microdilution, OSPC-USA1100 (07-040)): 128 µg/mL; MIC ([5]; broth microdilution, Pediatric-USA800 (USA800-0179)): 64 µg/mL; MIC ([6]; broth microdilution, USA300 (USA300-0114)): 64 µg/mL; MIC ([7]; broth microdilution, USA400 (USA400-0051)): 64 µg/mL"
